Activity calls are given as the source filed them. The calls are words filed in the database; no cut-off is given here.
Columns and labels:
[1] = biological target: Fibroblast growth factor receptor 2 (Homo sapiens, UniProt P21802); assay: Inhibition of FGFR2 (unknown origin) by ELISA
MDA-MB-231 [2] = assay: Cell cycle arrest in human MDA-MB-231 cells assessed as accumulation of G0-G1 phase cells at 2.5 uM incubated for 24 hrs by […]PI staining based flow cytometric analysis (reference value: 41.83%); format: functional
MDA-MB-231 [3] = assay: Cell cycle arrest in human MDA-MB-231 cells assessed as accumulation of S phase cells at 2.5 uM incubated for 24 hrs by […]PI staining based flow cytometric analysis (reference value: 41.29%); format: functional
MDA-MB-231 [4] = assay: Cell cycle arrest in human MDA-MB-231 cells assessed as accumulation of G2-M phase cells at 5 uM incubated for 24 hrs by […]PI staining based flow cytometric analysis (reference value: 16.88%); format: functional
MDA-MB-231 [5] = assay: Cell cycle arrest in human MDA-MB-231 cells assessed as accumulation of S phase cells at 5 uM incubated for 24 hrs by […]PI staining based flow cytometric analysis (reference value: 41.29%); format: functional
MDA-MB-231 [6] = assay: Cell cycle arrest in human MDA-MB-231 cells assessed as accumulation of G2-M phase cells at 10 uM incubated for 24 hrs by […]PI staining based flow cytometric analysis (reference value: 16.88%); format: functional
MDA-MB-231 [7] = assay: Induction of apoptosis in human MDA-MB-231 cells assessed as early apoptotic cells at 2.5 uM incubated for 24 hrs by Annexin V-FITC/PI staining based flow cytometric analysis (reference value: 0.131 %); format: functional
MDA-MB-231 [8] = assay: Induction of apoptosis in human MDA-MB-231 cells assessed as necrotic cells at 5 uM incubated for 24 hrs by Annexin V-FITC/PI staining based flow cytometric analysis (reference value: 0.063 %); format: functional
MDA-MB-231 [9] = assay: Induction of apoptosis in human MDA-MB-231 cells assessed as late apoptotic cells at 10 uM incubated for 24 hrs by Annexin V-FITC/PI staining based flow cytometric analysis (reference value: 0.161 %); format: functional
MDA-MB-231 [10] = assay: Induction of apoptosis in human MDA-MB-231 cells assessed as necrotic cells at 10 uM incubated for 24 hrs by Annexin V-FITC/PI staining based flow cytometric analysis (reference value: 0.063 %); format: functional
Cell membrane = assay: Induction of mitochondrial membrane potential loss in human MDA-MB-231 cells assessed as increase in JC-1 monomer by measuring green fluorescence incubated for 12 hrs by confocal microscopic analysis; format: cell membranes; settings: dose 2.5-10 µM
MDA-MB-231 [11] = assay: Induction of apoptosis in human MDA-MB-231 cells assessed as inhibition of total PARP protein expression incubated for 24 hrs by Western blot analysis; format: functional, cell-based; settings: dose 2.5-10 µM
MDA-MB-231 [12] = assay: Induction of apoptosis in human MDA-MB-231 cells assessed as inhibition of Bcl-2 protein expression incubated for 24 hrs by Western blot analysis; format: functional, cell-based; settings: dose 2.5-10 µM
MDA-MB-231 [13] = assay: Induction of apoptosis in human MDA-MB-231 cells assessed as increase in Bax protein expression incubated for 24 hrs by Western blot analysis; format: functional, cell-based; settings: dose 2.5-10 µM
MDA-MB-231 [14] = assay: Effect on FGFR1 protein expression in human MDA-MB-231 cells at 5 to 10 uM incubated for 24 hrs by Western blot analysis; format: functional, cell-based; settings: dose 5-10 µM
MDA-MB-231 [15] = assay: Effect on PLCgamma protein expression in human MDA-MB-231 cells at 5 to 10 uM incubated for 24 hrs by Western blot analysis; format: functional, cell-based; settings: dose 5-10 µM
[16] = Metabolic stability in human liver microsomes assessed as parent compound remaining at 1 uM measured after 5 mins by LC-MS/MS analysis; format: ADME, Microsome; settings: read-out: Stability
[17] = Metabolic stability in human liver microsomes assessed as parent compound remaining at 1 uM measured after 30 mins by LC-MS/MS analysis; format: ADME, Microsome; settings: read-out: Stability
[18] = Metabolic stability in rat liver microsomes assessed as parent compound remaining at 1 uM measured after 5 mins by LC-MS/MS analysis; format: ADME, Microsome; settings: read-out: Stability
[19] = Metabolic stability in rat liver microsomes assessed as parent compound remaining at 1 uM measured after 15 mins by LC-MS/MS analysis; format: ADME, Microsome; settings: read-out: Stability
[20] = Metabolic stability in rat liver microsomes assessed as parent compound remaining at 1 uM measured after 30 mins by LC-MS/MS analysis; format: ADME, Microsome; settings: read-out: Stability
[21] = Metabolic stability in rat liver microsomes assessed as parent compound remaining at 1 uM measured after 45 mins by LC-MS/MS analysis; format: ADME, Microsome; settings: read-out: Stability
[22] = Metabolic stability in mouse liver microsomes assessed as parent compound remaining at 1 uM measured after 5 mins by LC-MS/MS analysis; format: ADME, Microsome; settings: read-out: Stability
[23] = Metabolic stability in mouse liver microsomes assessed as parent compound remaining at 1 uM measured after 15 mins by LC-MS/MS analysis; format: ADME, Microsome; settings: read-out: Stability
[24] = Metabolic stability in mouse liver microsomes assessed as parent compound remaining at 1 uM measured after 45 mins by LC-MS/MS analysis; format: ADME, Microsome; settings: read-out: Stability
[25] = Metabolic stability in human liver microsomes assessed as half-life at 1 uM incubated for 45 mins by LC-MS/MS analysis; format: ADME, Microsome
[26] = Metabolic stability in rat liver microsomes assessed as half-life at 1 uM incubated for 45 mins by LC-MS/MS analysis; format: ADME, Microsome
[27] = Metabolic stability in mouse liver microsomes assessed as intrinsic clearance at 1 uM incubated for 45 mins by LC-MS/MS analysis; format: ADME, Microsome; settings: read-out: CLH
MDA-MB-231 [28] = assay: Antitumor activity against human MDA-MB-231 cells xenografted in female BALB/c athymic nude mouse assessed as tumor growth inhibition at 10 mg/kg, po administered once a day via gavage for 21 days relative to control; format: functional; settings: MDA-MB-231, 504 h, time 21 day, read-out: TGI
[29] = Toxicity in BALB/c athymic nude mouse xenografted with human MDA-MB-231 cells assessed as effect on heart at 10 to 30 mg/kg, po administered once a day via gavage for 21 days by H and E staining based analysis; format: organism-based; settings: in vivo, 504 h, dose 10-30 mg/kg, time 21 day
[30] = Toxicity in BALB/c athymic nude mouse xenografted with human MDA-MB-231 cells assessed as effect on liver at 10 to 30 mg/kg, po administered once a day via gavage for 21 days by H and E staining based analysis; format: organism-based; settings: in vivo, 504 h, dose 10-30 mg/kg, time 21 day
[31] = Toxicity in BALB/c athymic nude mouse xenografted with human MDA-MB-231 cells assessed as effect on spleen at 10 to 30 mg/kg, po administered once a day via gavage for 21 days by H and E staining based analysis; format: organism-based; settings: in vivo, 504 h, dose 10-30 mg/kg, time 21 day
[32] = Toxicity in BALB/c athymic nude mouse xenografted with human MDA-MB-231 cells assessed as effect on lung at 10 to 30 mg/kg, po administered once a day via gavage for 21 days by H and E staining based analysis; format: organism-based; settings: in vivo, 504 h, dose 10-30 mg/kg, time 21 day
MDA-MB-435 = assay: cells; settings: Homo sapiens, MDA-MB-435, 72 h
Description: Antiproliferative activity against human MDA-MB-435 cells assessed as inhibition of cell growth incubated for 72 hrs by MTT assay

KYSE-150 cell line = assay: cells; settings: Homo sapiens, KYSE-150, 72 h
Description: Antiproliferative activity against human KYSE-150 cells assessed as inhibition of cell growth incubated for 72 hrs by MTT assay

in vitro = settings: human, HUVEC cells
Description: Cytotoxicity against HUVEC cells assessed as inhibition of cell growth incubated for 72 hrs by MTT assay

Fibroblast growth factor receptor 2, sequence (P21802 whole entry): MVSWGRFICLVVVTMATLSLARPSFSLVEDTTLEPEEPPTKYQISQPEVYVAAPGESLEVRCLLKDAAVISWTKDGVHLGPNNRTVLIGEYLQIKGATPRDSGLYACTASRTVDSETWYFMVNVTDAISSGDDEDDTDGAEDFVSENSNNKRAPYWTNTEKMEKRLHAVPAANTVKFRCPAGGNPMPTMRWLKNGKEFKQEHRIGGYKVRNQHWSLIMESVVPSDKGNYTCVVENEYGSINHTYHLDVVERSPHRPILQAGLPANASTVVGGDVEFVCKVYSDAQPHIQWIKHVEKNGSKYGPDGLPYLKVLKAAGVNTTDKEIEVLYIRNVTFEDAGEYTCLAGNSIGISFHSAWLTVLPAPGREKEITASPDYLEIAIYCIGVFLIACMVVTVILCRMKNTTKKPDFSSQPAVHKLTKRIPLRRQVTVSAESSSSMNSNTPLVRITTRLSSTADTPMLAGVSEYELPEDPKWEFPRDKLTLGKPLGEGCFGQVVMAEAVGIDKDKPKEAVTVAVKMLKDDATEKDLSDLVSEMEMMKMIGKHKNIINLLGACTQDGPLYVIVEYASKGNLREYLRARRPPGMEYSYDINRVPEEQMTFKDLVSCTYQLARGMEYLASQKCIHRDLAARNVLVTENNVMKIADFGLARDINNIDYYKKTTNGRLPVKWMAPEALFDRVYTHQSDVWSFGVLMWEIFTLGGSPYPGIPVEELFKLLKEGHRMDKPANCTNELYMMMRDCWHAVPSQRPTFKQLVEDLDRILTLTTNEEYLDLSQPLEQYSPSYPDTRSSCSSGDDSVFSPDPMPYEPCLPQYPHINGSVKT

## C=CC(=O)Nc1ccc(Cn2cnc3c(-c4cc(OC)cc(OC)c4)ncnc32)cc1
[1]
  IC50: 0.89 nM
MDA-MB-231 [2]
  Activity: 50.81%
MDA-MB-231 [3]
  Activity: 34.25%
MDA-MB-231 [4]
  Activity: 10.68%
MDA-MB-231 [5]
  Activity: 22.82%
MDA-MB-231 [6]
  Activity: 15.49%
MDA-MB-231 [7]
  Activity: 26.3%
MDA-MB-231 [8]
  Activity: 3.01%
MDA-MB-231 [9]
  Activity: 15.73%
MDA-MB-231 [10]
  Activity: 1.66%
Cell membrane
  Activity: Dose-Dependent Effect
MDA-MB-231 [11]
  Activity: Dose-Dependent Effect
MDA-MB-231 [12]
  Activity: Dose-Dependent Effect
MDA-MB-231 [13]
  Activity: Dose-Dependent Effect
MDA-MB-231 [14]
  Activity: inactive
MDA-MB-231 [15]
  Activity: inactive
[16]
  remaining at 5 min, 1 µM: 85%
[17]
  remaining at 0.5 h, 1 µM: 43.7%
[18]
  remaining at 5 min, 1 µM: 73.4%
[19]
  remaining at 0.25 h, 1 µM: 40%
[20]
  remaining at 0.5 h, 1 µM: 18.6%
[21]
  remaining at 0.75 h, 1 µM: 9.41%
[22]
  remaining at 5 min, 1 µM: 61.5%
[23]
  remaining at 0.25 h, 1 µM: 27.2%
[24]
  remaining at 0.75 h, 1 µM: 3.58%
[25]
  half-life at 1 µM: 41.4 min
[26]
  half-life at 1 µM: 15.9 min
[27]
  CLint scaled at 1 µM: 424 mL/min/kg
MDA-MB-231 [28]
  inhibition in vivo at 10 mg/kg: 40.2%
[29]
  Activity: Non-Toxic
[30]
  Activity: Non-Toxic
[31]
  Activity: Non-Toxic
[32]
  Activity: Non-Toxic
MDA-MB-435
  IC50: 9.17 µM
KYSE-150 cell line
  IC50: 1930 nM
In vitro
  IC50 at 72 h: 82.1 µM

Source: ChEMBL document CHEMBL5500360, “Discovery of N-(4-((6-(3,5- Dimethoxyphenyl)-9H-purine derivatives as irreversible covalent FGFR inhibitors” (Eur J Med Chem, 2024)
